Test results as given in patent EP4772509A1, “KINESIN KIF18A INHIBITOR, AND APPLICATION THEREOF” (Shanghai Apeiron Therapeutics Company Limited, priority 2023, dated 2025).
Like-named read-outs stand apart in the source and are kept apart here.

What was measured:
[1] = biological target: T1, Human KIF18A (amino acid sequence 1-417) (Homo sapiens, UniProt Q8NI77); experiment: Enzymatic activity test (ADP-Glo, microtubule-stimulated ATPase); assay type: biochemical; settings: 60 µg/mL microtubules, 25 µM ATP, 2.5 nM KIF18A protein, 120 min at ambient temperature, chemiluminescence; read-out: KIF18A IC50
T1 construct: purchased Viva Biotech (Shanghai) Ltd
T1 sequence (Q8NI77 1-417): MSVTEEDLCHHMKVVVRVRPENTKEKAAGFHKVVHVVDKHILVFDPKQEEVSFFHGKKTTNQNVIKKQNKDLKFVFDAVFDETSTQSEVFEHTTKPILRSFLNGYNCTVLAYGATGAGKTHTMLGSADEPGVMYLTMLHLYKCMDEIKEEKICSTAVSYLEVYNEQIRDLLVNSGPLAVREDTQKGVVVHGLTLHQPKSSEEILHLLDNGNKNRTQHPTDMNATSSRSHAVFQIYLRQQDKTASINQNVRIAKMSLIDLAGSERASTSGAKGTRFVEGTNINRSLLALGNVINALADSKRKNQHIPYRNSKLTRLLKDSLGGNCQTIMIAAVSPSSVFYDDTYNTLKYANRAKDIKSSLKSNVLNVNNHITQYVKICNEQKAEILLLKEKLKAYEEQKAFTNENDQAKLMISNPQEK
Procedure: Materials: Human KIF18A (amino acid sequence 1-417) was purchased from Viva Biotech (Shanghai) Ltd.; the ADP-Glo™ protein kinase kit was acquired from Promega, USA; tubulin was sourced from Cytoskeleton, USA; and the 384-well assay plate and Envision multifunctional microplate reader were obtained from PerkinElmer, USA.
Enzymatic Activity Test: The compound powder was dissolved in DMSO to prepare a stock solution of 10 mM. Then gradient dilution was performed for the compounds in the microplate to achieve a final concentration of 0-10 µM. Then, 2.5 µL each of tubulin, compound, ATP, and KIF18A protein were added to the microplate in sequence for reaction at ambient temperature for 120 min. The final concentrations in the enzyme reaction were 60 µg/mL for microtubules, 25 µM for ATP, and 2.5 nM for KIF18A protein. After the enzyme reaction, 10 µL of ADP-GLO reaction reagent was added to each well and incubated at room temperature for 30 min. After that, 20 µL of detection reagent was added to each well and incubated at room temperature for 30 min in the dark. Finally, chemiluminescence detection was performed using the PerkinElmer Envision.

HT29 cells = experiment: CyQuant cell proliferation activity test; assay type: cell-based; settings: HT29 at 2000 cells per well, 3 days, 0.2% DMSO, XLFIT
Procedure: Materials and Cells: HT29 cells were purchased from Nanjing Cobioer Biosciences Co., Ltd.; RPMI-1640 medium, fetal bovine serum, Trypsin-EDTA (0.25%), 96-well plates, and CyQuant reagents were purchased from ThermoFisher (USA); DMSO was purchased from SIGMA (USA).
Cell Culture: HT29 cells were cultured with RPMI-1640 containing 10% fetal bovine serum under the condition of 37°C and 5% CO2. Only cells in the logarithmic growth phase could be used for the test.
Cell Proliferation Activity Test: CyQuant reagent was used to detect the proliferation inhibitory activity of compounds on HT29 cells. The cell density was adjusted, and 100 µL per well was inoculated into a 96-well plate (HT29 at 2000 cells per well), then incubated overnight at 37°C and 5% CO2. Add compounds of various target concentrations (initial concentration of 3000 nM, 3-fold dilution, 9 concentration gradients), and make the DMSO content 0.2%. The cell plate was incubated at 37°C in 5% CO2 for 3 days. CyQuant reagent was added and incubated for 1 h. The plates were read by Envision, and IC50 was calculated using XLFIT.

OVCAR3 cells = experiment: Cell proliferation activity test (CyQUANT Direct); assay type: cell-based; settings: 3 days, 0.2% DMSO, CyQUANT fluorescence
Procedure: Materials and Cells: OVCAR3 cells were purchased from Nanjing Cobioer Biosciences Co., Ltd. RPMI-1640 medium, fetal bovine serum, and the CyQUANT Direct Cell Proliferation Assay kit were purchased from Thermo Fisher Scientific, USA; 96-well cell culture plates were sourced from Corning, USA.
Cell Culture: OVCAR3 cells were cultured with RPMI-1640 medium containing 10% fetal bovine serum and incubated in a 5% CO2 incubator at 37°C. Only cells in the logarithmic growth phase could be used for the test.
OVCAR3 cells were inoculated into a 96-well cell culture plate at 90 µL per well and incubated overnight in a 5% CO2 incubator at 37°C. The compound powder was dissolved in DMSO to prepare a stock solution of 10 mM. Then gradient dilution was performed for the compounds in the microplate to achieve a final concentration of 0-10 µM. 10 µL of cell culture medium containing compounds was added to each well to make the final DMSO content 0.2%. The cell plates were incubated in a 5% CO2 incubator at 37°C for 3 days. 100 µL of CyQUANT detection reagent was added to each well, reacted at 37°C for 60 min, and fluorescence detection was performed using the PerkinElmer Envision.

Compound	IC50 [1] [µM]	IC50 (HT29 cells; read-out: HT-29 IC50) [µM]	IC50 (OVCAR3 cells) [µM]	IC50 (HT29 cells; Homo sapiens, HT-29, 72 h) [µM]	IC50 (OVCAR3 cells; Homo sapiens, OVCAR-3, 72 h) [µM]
Cn1c2nc(cc1=O)NC(=O)c1c(cc(NS(=O)(=O)CCO)c3c1CCC3=O)N1CCC(C/C=C\C3CN2CCC3(F)F)CC1 (stereo not drawn) [Example 9, N-(11,11-difluoro-6-methyl-1,5,22-trioxo-1,5,6,9,10,11,12,15,16,17,18,22,23,24-tetradecahydro-2H-3,7-(azanediyl)-16, 19-ethano-8,12-methyleneindeno[4,5-i] [1,3,7,11]tetraazacyclohenicosan-21-yl)-2-hydroxyethane-1-sulfonamide]	0.264			1.02	1.06
Cc1cc2nc(n1)N1CCC(F)(F)C(/C=C/CC3CCN(CC3)c3cc(NS(=O)(=O)CCO)c(C(=O)N(C)C)cc3-n3cc-2nn3)C1 (stereo not drawn) [Example 93, (3^4Z,7E)-1^4,1^4-difluoro-4^4-((2-hydroxyethyl)sulfonamido)-2^6-methyl-3^1H-2(2,4)-pyrimidin-1(1,3),5(1,4)-dipiperidin-3(4,1)-triazole-4(1,2)-benzocyclooct-7-en-4^5carboxamide]				0.194	0.091
Cc1cc2nc(n1)N1CCC(F)(F)C(CCCc3ccc(cc3)-c3cc(NS(=O)(=O)CCO)c(F)cc3C(=O)N2)C1 (stereo not drawn) [Example 53, 2-Hydroxy-N-(1^4,1^4,5^5-trifluoro-2^6-methyl-4-oxo-3-aza-2(2,4)-pyrimidin-1(1,3)-piperidin-5(1,2),6(1,4)-diphenylheterocyclononane-5^4-yl)ethane-1-sulfonamide]	0.049				0.046
Cc1cc2nc(n1)N1CCC(F)(F)C(/C=C\c3csc(c3)-c3cc(NS(=O)(=O)CCO)ccc3C(=O)N2)C1 (stereo not drawn) [Example 67, N-(2^4,2^4-difluoro-1^6-methyl-7-oxo-8-aza-1(2,4)-pyrimidin-2(1,3)-piperidin-5(2,4)-thiophene-6(1,2)-benzeneheterocyclooct-3-en-6^5-yl)-2-hydroxyethane-1-sulfonamide]	0.086				0.481
Cc1cc2nc(n1)N1CCC(F)=C(/C=C\CC3CCN(CC3)c3cc(NS(=O)(=O)CCO)ccc3-n3cc-2nn3)C1 [Example 82, N-((3^4Z,7Z)-1^4-fluoro-2^6-inethyl-1^1,1^2,1^3,1^6-tetrahydro-3^1H-2(2,4)-pyrimidin-1(1,5)-pyridin-5(1,4)-piperidin-3(4,1)-triazole-4(1,2)-benzylcyclooct-7-en-4^4-yl)-2-hydroxyethane-1-sulfonamide]	1.02				1.28
Cc1cc2nc(n1)N1CCC(F)=C(/C=C\CC3CCN(CC3)c3cc(NS(=O)(=O)CCO)c4c(c3C(=O)N2)CCC4=O)C1 [Example 3, N-(1^4-fluoro-2^6-methyl-5^1,4-dioxo-11,1^2,1^3,1^6,5^2,5^3-hexahydro-5^1H-3-aza-^2(2,4)-pyrimidin-1(1,5)-pyridin-6(1,4)-piperidin-5(4,5)-indenoheterononane-8-en-5^7-yl)-2-hydroxyethane-1-sulfonamide]	0.566				1.13
Cc1cc2nc(n1)N1CCC(F)(F)C(CC=Cc3ccc(nc3)-c3cc(NS(=O)(=O)CCO)ccc3C(=O)N2)C1 (stereo not drawn) [Example 48, N-(1^4,1^4-difluoro-2^6-methyl-4-oxo-3-aza-2(2,4)-pyrimidin-6(2,5)-pyridin-1(1,3)-piperidin-5(1,2)-phenylheterocyclonon-7-en-5^4-yl)-2-hydroxyethane-1-sulfonamide]				1.56	1.21
Cc1cc2nc(n1)N1CCC(F)(F)C(CCCc3ccc(cc3)-c3cc(NS(=O)(=O)CCO)ccc3C(=O)N2)C1 (single isomer, unassigned) [Example 46B, N-(1^4,1^4-difluoro-2^6-methyl-4-oxo-3-aza-2(2,4)-pyrimidin-1(1,3)-piperidin-5(1,2),6(1,4)-diphenylheterocyclononane-5^4-yl)-2-hydroxyethane-1-sulfonamide]	0.057	0.036			

Now from value to molecule, other results behind:

IC50 [1] [µM]	IC50 (HT29 cells; read-out: HT-29 IC50) [µM]	IC50 (OVCAR3 cells) [µM]	Compound	IC50 (HT29 cells; Homo sapiens, HT-29, 72 h) [µM]	IC50 (OVCAR3 cells; Homo sapiens, OVCAR-3, 72 h) [µM]
0.043	0.025	0.025	Cc1cc2nc(n1)N1CCC(F)(F)C(C=CCC3CCN(CC3)c3cc(NS(=O)(=O)CCO)c4c(c3C(=O)N2)CCC4=O)C1 (single isomer, unassigned) [Example 2C, N-(1^4,1^4-difluoro-2^6-methyl-5^1,4-dioxo-5^2,5^3-dihydro-5^1H-3-aza-2(2,4)-pyrimidin-1(1,3),6(1,4)-dipiperidin-5(4,5)-indenoheterocyclonon-8-en-5^7-yl)-2-hydroxyethane-1-sulfonamide]		
0.22	0.022	0.022	Cc1cc2nc(n1)N1CCC(F)(F)C(/C=C\CC3CCN(CC3)c3cc(NS(=O)(=O)CCO)c4ccccc4c3C(=O)N2)C1 (single isomer, unassigned) [Example 1B, (cis)-N-(1^4,1^4-difluoro-2^6-methyl-4-oxo-3-aza-2(2,4)-pyrimidin-1(1,3),6(1,4)-dipiperidin-5(1,2)-naphthacyclonon-8-en-5^4-yl)-2-hydroxyethane-1-sulfonamide]		
3.55	0.639	0.639	Cc1cc2nc(n1)N1CCC(F)(F)C(C=CCC3CCN(CC3)c3cc(NS(=O)(=O)CCO)c4c(c3C(=O)N2)CCC4=O)C1 (single isomer, unassigned) [Example 2B, N-(1^4,1^4-difluoro-2^6-methyl-5^1,4-dioxo-5^2,5^3-dihydro-5^1H-3-aza-2(2,4)-pyrimidin-1(1,3),6(1,4)-dipiperidin-5(4,5)-indenoheterocyclonon-8-en-5^7-yl)-2-hydroxyethane-1-sulfonamide]		
0.546	0.679	0.679	Cc1cc2nc(n1)N1CCC(F)(F)C(C=CCC3CCN(CC3)c3cc(NS(=O)(=O)CCO)c4c(c3C(=O)N2)CCC4=O)C1 (single isomer, unassigned) [Example 2D, N-(1^4,1^4-difluoro-2^6-methyl-5^1,4-dioxo-5^2,5^3-dihydro-5^1H-3-aza-2(2,4)-pyrimidin-1(1,3),6(1,4)-dipiperidin-5(4,5)-indenoheterocyclonon-8-en-5^7-yl)-2-hydroxyethane-1-sulfonamide]		
0.186		0.038	Cc1cc2nc(n1)C1CN(/C=C/CC3CCN(CC3)c3cc(NS(=O)(=O)CCO)ccc3-c3cn-2nn3)CCC1(F)F (single isomer, unassigned) [Example 84C, N-((3^4Z,7E)-1^4,1^4-difluoro-2^6-methyl-3^1H-2(2,4)-pyrimidin-1(1,3),5(1,4)-dipiperidin-3(1,4)-triazole-4(1,2)-benzocyclooct-7-en-4^4-yl)-2-hydroxyethane-1-sulfonamide]		
0.284		> 3	Cc1cc2nc(n1)C1CN(/C=C/CC3CCN(CC3)c3cc(NS(=O)(=O)CCO)ccc3-c3cn-2nn3)CCC1(F)F (single isomer, unassigned) [Example 84D, N-((3^4Z,7E)-1^4,1^4-difluoro-2^6-methyl-3^1H-2(2,4)-pyrimidin-1(1,3),5(1,4)-dipiperidin-3(1,4)-triazole-4(1,2)-benzocyclooct-7-en-4^4-yl)-2-hydroxyethane-1-sulfonamide]		
